Experimental findings from patent US20050222167A1, “9-aminoacridine derivatives and process for the preparation thereof” (priority 2002, published 2005) are described below.

Series [1] concerns A549 (human non-small lung cell). As to the kind of experiment: SRB assay, in vitro antitumor effect against human tumor cell lines. The format is cell-based. The settings on record: 48 hours. As for the experimental part: (§1) Experimental 1: In vitro antitumor effect against human tumor cell lines.
(§2) A. Tumor cell lines: A549 (human non-small lung cell)
(§3) • SKOV-3 (human ovarian) • HCT-15 (human colon) • XF-498 (human CNS) • SKMEL-2 (human melanoma) B. Method: SRB Assay • a. Human solid tumor cell lines, A549(non-small lung cell), SKMEL-2(melanoma), HCT-15(colon), SKOV-3(ovarian) and XF-498(CNS) were cultured in 5% CO2 incubators using the RPMI 1640 media containing 10% FBS at 37° C., while with transfer-culturing successively once or twice per week. Cell cultures were dissolved in a solution of 0.25% trysin and 3 mmol CDTA PBS(−) to separate the cells sticked on the culture media. • b. 5 103˜2 104 cells were added into each well of 96-well plate and cultured in 5% CO2 incubator at 37° C. for 24 hours. • c. Each sample drug was dissolved in a little DMSO and diluted with the used medium to a prescribed concentration for experiment, while the final concentration of DMSO was adjusted below 0.5%. • d. Medium of each well cultured for 24 hours as above b. was removed by aspiration. Each 200 μl of drug samples prepared in c. was added into each well and the wells were cultured for 48 hours. Tz (time zero) plates were collected at the point of time drugs were added. • e. According to the SRB assay method, cell fixing with TCA, staining with 0.4% SRB solution, washing with 1% acetic acid and elution of dye with 10 mmol Tris solution were carried out on Tz plates and culture-ended plates, and then, OD values were measured at 520 nm. C. Calculation of Result • a. Time zero (Tz) value was determined with measuring the SRB protein value at the point of time drugs were added. • b. Control value (C) was determined with the OD value of an well untreated with drug. • c. Drug-treated test value (T) was determined with the OD value of drug-treated well. • d. Effects of drugs were estimated with growth stimulation, net growth inhibition and net killing calculated from Tz, C and T values. • e. If T≧Tz, cellular response function was calculated by 100×(T−Tz)/(C−Tz), and, if T<Tz, by 100 (T−Tz)/Tz.
In general terms: Sulforhodamine B stains cellular protein and so reports cell mass.

The test system of another series is HCT-15 (human colon). The series is described as above. The format is cell-based. The settings on record: HCT-15, SRB assay, 48 hours. The method, then: as §1, §2, §3
In the next series the test system is SKMEL-2 (human melanoma). The series is described as above. The format is cell-based. The settings on record: SK-MEL-2, SRB assay, 48 hours. The method, then: as §1, §2, §3
Another series relates to SKOV-3 (human ovarian). Described as above. The settings on record: SK-OV-3, SRB assay, 48 hours. In kind it is cell-based. As for the experimental part:
as §1, §2, §3

Another series has as its system XF-498 (human CNS). The description is as above. The format is cell-based. The settings on record: XF-498, SRB assay, 48 hours. As for the experimental part: as §1, §2, §3
In series [2] the test system is P388 (mouse lymphoid neoplasma cell). Description: Dye exclusion assay, in vitro antitumor effects against animal leukemia cells. In kind it is cell-based. The settings on record: P388, trypan blue dye exclusion, 48 hours, read-out: concentration showing 50% cell growth inhibition (IC50). An excerpt:
Experimental 2: In Vitro Antitumor Effects Against Animal Leukemia Cells. A. Material:
Tumor cell lines: P388 (mouse lymphoid neoplasma cell)
B. Method: Dye Exclusion Assay.

For another series, the system named is Leukemia P388 cells. Description: In vivo antitumor effects against mouse leukemia P388 cells. The settings on record: abdominal cavity, days 1, 5, 9, BDF1 mice with P388. As for the experimental part:
Experimental 3: In Vivo Antitumor Effects Against Mouse Leukemia P388 Cells A. Material of Experiment • BDF1 mice were used. B. Method of Experiment • 1) Leukemia P388 cells being transfer-cultured successively in DBA/2 mouse, were grafted into each mouse of a group comprising 8 mice of 6 week old BDF1 mouse with the dose of 1×10^6 cells/0.1 ml • 2) Sample drugs were dissolved in PBS or suspended in 0.5% tween 80, and then injected into abdominal cavity of mouse at each prescribed concentration on days 1, 5, 9, respectively. • 3) With observation everyday, survival times of tested mice were measured. Antitumor activities was deternimed in such a manner that the increasing ratio (T/C %) of average survival days of drug-treated groups compared with the control group was calculated using the mean survival times of each tested groups.

Series [3] is described as follows: Acute toxicity test (LD50), Litchfield-Wilcoxon method. The settings on record: male, mouse, in vivo; iv, ICR mice, observed 14 days. The method, then: Experimental 4. Acute Toxicity Test (LD50): a) Method: Litchfield-Wilcoxon Method.
6-week-old ICR mice (male 30 2.0 g) were fed freely with solid feed and water at room temperature, […], and at humidity 60 5%. Sample drugs were injected into the abdominal cavities of mice. Each group comprised 6 mice. […] LD50 value was calculated by Litchfield-wilcoxon method.

In brackets after ≈: the same amount, converted by molar mass.

Consider `CCc1nc(OC)c(NC(=O)N2CCN(c3cc(C)cc(C)c3)CC2)cc1C(=O)NC(C)C(=O)Nc1cc(CO)cc(Nc2c3ccccc3nc3c(C)c(C)ccc23)c1` (stereo not shown) [Example 16, 4-(3,5-dimethylphenyl)piperazine-1-carboxylic acid (5-{1-[3-(3,4-dimethylacridine-9-yl-amino)-5-hydroxymethylphenylcarbamoyl]-ethylcarbamoyl}-6-ethyl-2-methoxypyridine-3-yl)amide], for which the ED50 in series [1] was determined as 0.08 µg/mL (≈ 0.0989 µM); with HCT-15 (human colon) it was 0.07 µg/mL (≈ 0.0865 µM); in the series with SKMEL-2 (human melanoma), 0.02 µg/mL (≈ 0.0247 µM); in the series with SKOV-3 (human ovarian) it was 0.14 µg/mL (≈ 0.173 µM); in the series on XF-498 (human CNS) it was 0.09 µg/mL (≈ 0.111 µM). Besides, the IC50 in series [2] was determined as 0.3 µg/mL (≈ 0.371 µM).
As for `CCCc1nc(OC)c(NC(=O)N2CCN(c3cc(OC)cc(OC)c3)CC2)cc1C(=O)NC(C)C(=O)Nc1cc(CO)cc(Nc2c3ccccc3nc3ccccc23)c1` (stereo not shown) [Example 9, 4-(3,5-dimethoxyphenyl)piperazine-1-carboxylic acid (5-{1-[3-(acridine-9-yl-amino)-5-hydroxymethylphenylcarbamoyl]-ethylcarbamoyl}-2-methoxy-6-propylpyridine-3-yl)-amide], the ED50 in series [1] turned out to be 0.24 µg/mL (≈ 0.29 µM); in the series on HCT-15 (human colon) it was 0.15 µg/mL (≈ 0.181 µM); in the series with SKMEL-2 (human melanoma), 0.15 µg/mL (≈ 0.181 µM); in the series on SKOV-3 (human ovarian), 0.19 µg/mL (≈ 0.23 µM); in the series on XF-498 (human CNS) it was 0.15 µg/mL (≈ 0.181 µM). In series [2], the IC50 was determined as 0.4 µg/mL (≈ 0.484 µM).
In the case of `CCc1nc(OC)c(NC(=O)N2CCN(c3cc(F)cc(F)c3)CC2)cc1C(=O)NC(C)C(=O)Nc1cc(CO)cc(Nc2c3ccccc3nc3ccccc23)c1` (stereo not shown) [Example 4, 4-(3,5-difluorophenyl)piperazine-1-carboxylic acid (5-{1-[3-(acridine-9-yl-amino)-5-hydroxymethylphenylcarbamoyl]-ethylcarbamoyl}-6-ethyl-2-methoxypyridine-3-yl)amide], in series [2], the IC50 came to 0.9 µg/mL (≈ 1.14 µM).
Consider `CCc1nc(OC)c(NC(=O)N2CCN(c3cc(C)cc(C)c3)CC2)cc1C(=O)Nc1cc(CO)cc(Nc2c3ccccc3nc3ccccc23)c1` [Example 19, 4-(3,5-dimethylphenyl)-piperazine-1-carboxylic acid{5-[3-(acridine-9-yl-amino)-5-hydroxymethylphenylcarbamoyl]-6-ethyl-2-methoxy-pyridine-3-yl}amide], for which the ED50 in series [1] came to 0.21 µg/mL (≈ 0.296 µM); in the series on HCT-15 (human colon), 0.27 µg/mL (≈ 0.38 µM); in the series on SKMEL-2 (human melanoma) it was 0.18 µg/mL (≈ 0.254 µM); with SKOV-3 (human ovarian) it was 0.17 µg/mL (≈ 0.239 µM); with XF-498 (human CNS), 0.38 µg/mL (≈ 0.535 µM).
Taken in the same sequence, the figures for `N.N.[Cl][Pt][Cl]` [Cisplatin, cisplatin, reference compound] were 0.81 µg/mL, 3.03 µg/mL, 0.71 µg/mL, 0.71 µg/mL and 0.77 µg/mL.
Usually LD50 stands for the dose expected to kill half of the subjects tested. Read a high LD50 as a less toxic substance. With `CCc1nc(OC)c(NC(=O)N2CCN(c3cc(OC)cc(OC)c3)CC2)cc1C(=O)NC(C)C(=O)Nc1cc(CO)cc(Nc2c3ccccc3nc3ccccc23)c1` (stereo not shown) [Example 3, 4-(3,5-dimethoxyphenyl)piperazine-1-carboxylic acid (5-{1-[3-(acridine-9-yl-amino)-5-hydroxymethylphenylcarbamoyl]-ethylcarbamoyl}-6-ethyl-2-methoxypyridine-3-yl)amide], the ED50 worked out at 0.12 µg/mL (≈ 0.148 µM) in series [1]; 0.13 µg/mL (≈ 0.16 µM) in the series on HCT-15 (human colon); 0.03 µg/mL (≈ 0.0369 µM) in the series with SKMEL-2 (human melanoma); 0.19 µg/mL (≈ 0.234 µM) in the series with SKOV-3 (human ovarian); 0.18 µg/mL (≈ 0.221 µM) in the series on XF-498 (human CNS). Further, the IC50 in series [2] was found to be 1 µg/mL (≈ 1.23 µM). Moreover, the “MST” value is listed as 17.0 days in the series with Leukemia P388 cells (Dose 25 mg/kg), more than 60.0 days with Leukemia P388 cells (Dose 50 mg/kg) and 11.6 days in the series with Leukemia P388 cells (Dose 100 mg/kg). Moreover, the “T/C (%)” value with Leukemia P388 cells (Dose 25 mg/kg) is listed as 154.5%; with Leukemia P388 cells (Dose 50 mg/kg) it was more than 545.5%; in the series with Leukemia P388 cells (Dose 100 mg/kg) it was 100.0%. This compound displayed an LD50 at 14 days in series [3] of 80 mg/kg.
For `CCc1nc(OC)c(NC(=O)N2CCN(c3cc(C)cc(C)c3)CC2)cc1C(=O)NC(C)C(=O)Nc1cc(CO)cc(Nc2c3ccccc3nc3ccccc23)c1` (stereo not shown) [Example 2, 4-(3,5-dimethylphenyl)piperazine-1-carboxylic acid (5-{1-[3-(acridine-9-yl-amino)-5-hydroxymethylphenylcarbamoyl]-ethylcarbamoyl}-6-ethyl-2-methoxypyridine-3-yl)amide], the ED50 was 0.12 µg/mL (≈ 0.154 µM) in series [1]; 0.19 µg/mL (≈ 0.243 µM) in the series on HCT-15 (human colon); 0.01 µg/mL (≈ 0.0128 µM) in the series with SKMEL-2 (human melanoma); 0.12 µg/mL (≈ 0.154 µM) in the series on SKOV-3 (human ovarian); 0.18 µg/mL (≈ 0.23 µM) in the series with XF-498 (human CNS). For the same compound, the IC50 in series [2] was 0.3 µg/mL (≈ 0.384 µM). Moreover, the “MST” value is recorded as more than 60.0 days in the series with Leukemia P388 cells (Dose 25 mg/kg), more than 60.0 days in the series on Leukemia P388 cells (Dose 50 mg/kg) and 22.0 days with Leukemia P388 cells (Dose 100 mg/kg). For the same compound, the results for the “T/C (%)” value in the series on Leukemia P388 cells (Dose 25 mg/kg), in the series on Leukemia P388 cells (Dose 50 mg/kg) and in the series with Leukemia P388 cells (Dose 100 mg/kg) were more than 545.5%, more than 545.5% and 200.0%, respectively. In series [3], this compound showed an LD50 at 14 days of 80 mg/kg.
